Measured values published in patent US10280209B2 (YISSUM RESEARCH DEVELOPMENT COMPANY OF THE HEBREW …, priority 2013, dated 2019).
Where “and” joins values, the source holds several entries; their conditions need not be identical. Equal entries are not always repeated. Square brackets hold non-standard residues; d marks the D form. Ends that are not written are not given here.

Assays:
[1] = test system: experimental autoimmune encephalitis; experiment: Experimental autoimmune encephalitis (EAE) model; type: in vivo, mouse
[2] = test system: collagen-induced arthritis; experiment: Collagen-induced arthritis model; type: in vivo, mouse; conditions: mice
human IgG = experiment: Surface plasmon resonance, human IgG control on immobilized peptide; type: binding; conditions: SPR, studied in parallel
Method: Peptides were diluted to 10-200 μg/ml in 10 mM Sodium (Na) acetate pH 4.0 and immobilized on a CM5 sensor chip (BIAcore) using an amine-thiol coupling kit (BIAcore), respectively; the immobilized amounts were 500-1,000 resonance units. Analytes were injected at 20 μl/min in 25 mM HEPES pH 7.4, 150 mM NaCl, 3.4 mM EDTA, and 0.005% surfactant P20 under conditions showing no mass transport limitation. Regeneration was with 50 mM phosphoric acid. Kinetic analyses were performed at 25° C. in a BIAcore 3000 instrument, deducting the signal from the control flow cell from the binding signal. Analyte curves were run in duplicate; representative results are shown. Human IgG (Jackson Laboratories) served as control. Fusion of the IgG1-Fc domain to the 152-amino-acid extracellular domain of CD28 was performed as described below.

CD28 = biological target: T1, CD28 (Homo sapiens, UniProt P10747); experiment: αCD3/αCD28-induced cytokine expression in human PBMC (ELISA); type: cell-based; conditions: αCD3/αCD28, 10 μg/ml peptide
T1 construct: endogenous in cells; host or cells: human PBMC
Method: (§1) Peripheral blood mononuclear cells (PBMC) from healthy human donors were separated on Ficoll Paque (Amersham), washed twice with 50 ml of RPMI 1640 medium, re-suspended at a density of 4×10^6 cells/ml and cultured in this medium supplemented with 2% fetal calf serum, 2 mM glutamine, 10 mM Minimum Essential Medium (MEM) nonspecific amino acids, […], 10 mM Hepes pH 7.2, 5×10^−5 M 2-mercaptoethanol, 100 u/ml penicillin, 100 μg/ml streptomycin and 5 μg/ml nystatin. Mouse anti-human monoclonal antibodies αCD3 (clone UCHT1; 100 ng/ml) and αCD28 (clone 37407; 2.5 μg/ml) (both from R&D Systems) were used as inducers. Cytokines in culture medium were determined with Quantikine ELISA kits (R&D Systems) according to the manufacturer's instructions.

signaling through CD3 = experiment: αCD3-induced cytokine expression in human PBMC (ELISA); type: cell-based; conditions: αCD3 alone, 10 μg/ml peptide
Method: as §1

adjuvant arthritis = experiment: Adjuvant arthritis model; conditions: rat, in vivo
human PBMC = experiment: Cytokine induction by peptides alone in human PBMC (ELISA); type: cell-based; conditions: 10 μg/ml peptide, no inducer
Method: as §1

[3] = biological target: T2, staphylococcal enterotoxin B (SEB) (Staphylococcus aureus, UniProt P01552); conditions: previously shown (3); cited from earlier work
[4] = biological target: T2, staphylococcal enterotoxin B (SEB); conditions: previously shown (3); cited from earlier work; remark: listed apart in the source
[5] = FIG. 11A, daily from day 1, solumedrol 20 mg/kg, p2TB 50 μg, pe12-pal 100 μg
[6] = independent experiment FIG. 11B-D, daily, solumedrol 20 mg/kg, p2TB 50 μg, p2TB-pal 50 μg, pe12-pal 100 μg

C[C@H]1C[C@@H]2[C@H]([C@@H](O)C[C@@]3(C)[C@H]2CC[C@]3(O)C(=O)COC(=O)CCC(=O)O)[C@@]2(C)C=CC(=O)C=C12 [solumedrol, reference compound]
reduction of cumulative clinical score [1, 5]: 50% | reduction of cumulative clinical score [1, 6]: 50%

(palmitoyl-lysine)SHFTHNRHGHST(D-A) (SHFTHNRHGHST[dA]; not fully specified (N-terminus)) [pe12-pal]
amelioration of disease symptoms ([2]; 150 μg once every 3 days from disease onset): 31% | amelioration of disease symptoms ([2]; 200 μg once every 5 days from disease onset): 27% | reduction of cumulative clinical score [1, 5]: 63% | reduction of cumulative clinical score [1, 6]: 42% | reduction of cumulative clinical score ([1]; independent experiment FIG. 11B-D, once every 3 days, p2TB 100 μg, p2TB-pal 100 μg, pe12-pal 150 μg): 48%

(D-A)SHFTHNRHGHST(D-A) ([dA]SHFTHNRHGHST[dA]) [pe12]
affinity for IgG (human IgG): none of the peptides showed affinity for IgG | signaling through CD28 (IFN-γ, IL2, TNF-α secretion) (CD28): inhibit signaling through CD28 | αCD3-mediated induction of IFN-γ (signaling through CD3): did not inhibit | αCD3-mediated induction of IL2 (signaling through CD3): did not inhibit | αCD3-mediated induction of TNF-α (signaling through CD3): did not inhibit | disease symptoms after termination of therapy on day 15 (adjuvant arthritis): leveled off and even showed a progressive further decline | cumulative reduction of disease symptoms (adjuvant arthritis; iv): 41% | disease symptoms during treatment, up to day 15 (adjuvant arthritis; iv): did not exhibit inhibition of symptoms | Th1 cytokine response induced by peptide alone (human PBMC): do not induce a significant Th1 cytokine response

(D-A)PAVVLASS(D-A) ([dA]PAVVLASS[dA]) [p2TB, CTLA-4 homodimer interface peptide abutted by D-Ala at both termini]
affinity for IgG (human IgG): none of the peptides showed affinity for IgG | signaling through CD28 (IFN-γ, IL2, TNF-α secretion) (CD28): inhibit signaling through CD28 | αCD3-mediated induction of IFN-γ (signaling through CD3): did not inhibit | αCD3-mediated induction of IL2 (signaling through CD3): did not inhibit | αCD3-mediated induction of TNF-α (signaling through CD3): did not inhibit | Th1 cytokine response induced by peptide alone (human PBMC): do not induce a significant Th1 cytokine response

(D-A)ASMDYPVL(D-A) ([dA]ASMDYPVL[dA])
ability to bind directly to SEB after scrambling of p2TA sequence [3]: strongly impair | ability to protect mice from lethal SEB challenge after scrambling of p2TA sequence [4]: strongly impair

(palmitoyl-lysine)PAVVLASS(D-A) (PAVVLASS[dA]; not fully specified (N-terminus)) [p2TB-pal]
reduction of cumulative disease symptoms ([2]; 100 μg once every 3 days starting on day 25): 34% | reduction of cumulative clinical score ([1]; mouse, in vivo): 41% and 31% and 38%
